# System: hippocampal neurons
# Test: Light-driven synaptic transmission from ChR2-expressing presynaptic neurons
# Format: cell-based, rat
# Protocol: Spiking was measured while injecting current to keep the voltage of the cell at approximately −65 mV (holding current ranging from 0 pA to 200 pA). For the synaptic transmission experiments, we patched nonfluorescent neurons near ChR2-expressing neurons, immersed in Tyrode solution containing either 20 μM gabazine to isolate just the excitatory postsynaptic response, or in 5 μM NBQX to isolate just the inhibitory postsynaptic response. To confirm whether the evoked potentials were indeed synaptically driven, after synaptic stimulation we blocked all postsynaptic receptors with solution containing both 20 μM gabazine and 5 μM NBQX, and rephotostimulated.
SMILES,"effect on light-driven excitatory synaptic responses (glutamatergic blocker, FIG. 4(c))","effect on light-driven inhibitory synaptic responses (GABAergic transmission blocker, FIG. 4(d))"
NS(=O)(=O)c1cccc2c1c([N+](=O)[O-])cc1nc(O)c(O)nc12 [NBQX],abolishes these synaptic responses,–
COc1ccc(-c2ccc(=N)n(CCCC(=O)O)n2)cc1 [gabazine],–,abolishes these synaptic responses
